How the values were obtained:
[1] = tested on: patients; conditions: three or four suppositories of 1 mg at regular intervals; various studies; cited from earlier work
[2] = tested on: Swiss male mice; assay: Motor activity in mice (rota-rod); conditions: 5 mg/kg, i.p. (table); positive control
[3] = tested on: platelets; conditions: background statement; cited from earlier work

CCCCC(C)(C)[C@H](O)/C=C/[C@H]1[C@H](O)CC(=O)[C@@H]1CCCC/C=C/C(=O)OC (relative stereo) [gemeprost, 16,16-dimethyl-trans-Δ^2-PGE1 methyl ester]
complete abortions (% of the patients) [1]: more than 90%

CN1C(=O)CN=C(c2ccccc2)c2cc(Cl)ccc21 [Diazepam, reference compound]
Fraction (animals fallen before 300 sec/total number of animals) [2]: 8/10

CCCCC[C@H](O)/C=C/[C@H]1C(=O)C[C@H](O)[C@@H]1C/C=C\CCCC(=O)O [PGD2]
concentration that inhibits platelets aggregation "in vitro" [3]: 0.1 µM

CCCCC[C@H](O)/C=C/[C@H]1[C@H](O)CC(=O)[C@@H]1CCCCCCC(=O)O [PGE1]
concentration that inhibits platelets aggregation "in vitro" [3]: 0.1 µM

From patent publication EP0574185B1, “PGE1 analogs” (NEWPHARMA INTERNATIONAL CORPORATION, priority 1992, dated 1993)
